Key:
ALOMY = test: Herbicidal post-emergence action 1a (greenhouse pots, visual rating); format: in vivo, Alopecurus myosuroides; conditions: rated visually about 3 weeks after treatment, 100% = plants have died, 0% = like control plants
Method in brief: (§1)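 Weeds and crops sown in sandy loam in greenhouse pots were sprayed post-emergence at the one-leaf stage (2–3 weeks after sowing) with WP or EC formulations plus 0.5% additive at 600 l/ha water, 320 and/or 80 g/ha. About 3 weeks later damage was rated visually against untreated controls (0% = no effect, 100% = dead).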

POAAN = test: Herbicidal pre-emergence action 2b (doubly sown, 1280 g/ha); format: in vivo, Poa annua; conditions: doubly sown pots, dosage 1280 g/ha, visual scoring after about 3 weeks
Method in brief: (§2)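 Seeds are placed in sandy loam and covered, then the formulated compound is applied to the covering soil in water equivalent to 600 litres per hectare with 0.5% additive. Pots stay in the greenhouse under good growth conditions. Activity is rated visually as a percentage of untreated controls after about three weeks.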

DIGSA [1] = test: Herbicidal pre-emergence action 2a (greenhouse pots, visual scoring); format: in vivo, Digitaria sanguinalis; conditions: dosage 320 g/ha, visual scoring after about 3 weeks
Method in brief: (§3)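 Sow, cover with soil, spray soil surface (WP or EC in water, 0.5% additive, 600 l/ha; 320 and/or 80 g/ha), grow in greenhouse ~3 weeks, score visually in % against untreated controls.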

AMARE [2] = test: as above; format: in vivo, Amaranthus retroflexus; conditions: dosage 320 g/ha, visual scoring after about 3 weeks vs untreated controls
Method in brief: as §3

MATIN = test: Herbicidal pre-emergence action 2b (doubly sown, 1280 g/ha); format: in vivo, Matricaria inodora; conditions: doubly sown pots, dosage 1280 g/ha, visual scoring after about 3 weeks
Method in brief: as §2

SETVI = test: Herbicidal post-emergence action 1a (greenhouse pots, visual rating); format: in vivo, Setaria viridis; conditions: rated visually about 3 weeks after treatment, 100% = plants have died, 0% = like control plants
Method in brief: as §1

VERPE [3] = test: as above; format: in vivo, Veronica persica; conditions: visual rating about 3 weeks after treatment
Method in brief: as §1

AMARE [4] = test: as above; format: in vivo, Amaranthus retroflexus; conditions: visual rating about 3 weeks after treatment
Method in brief: as §1

harmful plants = test: Herbicidal post-emergence action 1a, summary across species; format: in vivo; conditions: Tables A1 to A15 (320 g/ha and/or 80 g/ha)
Description: a) Seeds of monocotyledonous and dicotyledonous weeds and crop plants are placed in sandy loam in plastic or organic plant pots, covered with soil and cultivated in a greenhouse under controlled growth conditions. 2 to 3 weeks after sowing, the test plants are treated at the one-leaf stage. The compounds of the invention, formulated in the form of wettable powders (WP) or as emulsion concentrates (EC), are then sprayed onto the green parts of the plants as aqueous suspension or emulsion with addition of 0.5% additive at a water application rate of 600 1/ha (converted). After the test plants have been kept in the greenhouse under optimum growth conditions for about 3 weeks, the activity of the preparations is rated visually in comparison to untreated controls. For example, 100% activity=the plants have died, 0% activity=like control plants.
Tables A1 to A15 below show the effects of selected compounds of the general formula (I) according to Tables 1 and 2 on various harmful plants and an application rate corresponding to 320 g/ha and/or 80 g/ha, which were obtained by the experimental procedure mentioned above.
For example, compound nos. I-05, I-07, I-08, I-10, I-12, I-16, I-17, I-22, I-36, I-37, I-39 and I-40 in the post-emergence method have very good action (80% to 100% herbicidal activity) against harmful plants such as Alopecurus myosuroides, Amaranthus retroflexus, Avena fatua, Lolium rigidum, Polygonum convolvulus, Setaria viridis, Veronica persica and Viola tricolor at an application rate of 0.32 kg of active substance per hectare.

LOLRI = test: Herbicidal pre-emergence action 2a (greenhouse pots, visual scoring); format: in vivo, Lolium rigidum; conditions: dosage 320 g/ha, visual scoring after about 3 weeks vs untreated controls
Method in brief: as §3

VERPE [5] = test: as above; format: in vivo, Veronica persica; conditions: dosage 320 g/ha, visual scoring after about 3 weeks vs untreated controls
Method in brief: as §3

AMARE [6] = test: Herbicidal pre-emergence action 2b (doubly sown, 1280 g/ha); format: in vivo, Amaranthus retroflexus; conditions: doubly sown pots, dosage 1280 g/ha, visual scoring after about 3 weeks
Method in brief: as §2

STEME = test: as above; format: in vivo, Stellaria media; conditions: doubly sown pots, dosage 1280 g/ha, visual scoring after about 3 weeks
Method in brief: as §2

ECHCG [7] = test: Herbicidal post-emergence action 1a (greenhouse pots, visual rating); format: in vivo, Echinochloa crus-galli; conditions: rated visually about 3 weeks after treatment, 100% = plants have died, 0% = like control plants
Method in brief: as §1

POLCO = test: Herbicidal pre-emergence action 2a (greenhouse pots, visual scoring); format: in vivo, Polygonum convolvulus; conditions: dosage 320 g/ha, visual scoring after about 3 weeks vs untreated controls
Method in brief: as §3

ECHCG [8] = test: as above; format: in vivo, Echinochloa crus-galli; conditions: dosage 320 g/ha, visual scoring after about 3 weeks
Method in brief: as §3

DIGSA [9] = test: Herbicidal post-emergence action 1a (greenhouse pots, visual rating); format: in vivo, Digitaria sanguinalis; conditions: Dosage 320 g/ha; rated visually about 3 weeks after treatment; 100% = plants have died, 0% = like control plants
Method in brief: as §1

## COC(=O)[C@@H](C)Oc1nn(-c2cnccn2)c(-c2ccc(F)c(F)c2)c1Br [Example I-45]
ALOMY; Dosage 80 g/ha
  Post-emergence action against ALOMY in %: 90%
ALOMY; Dosage 320 g/ha
  Post-emergence action against ALOMY in %: 90%
POAAN
  Pre-emergence action at 1280 g/ha against POAAN in %: 100%
DIGSA [1]
  Pre-emergence action against DIGSA in %: 100%
AMARE [2]
  Pre-emergence action against AMARE in %: 100%
MATIN
  Pre-emergence action at 1280 g/ha against MATIN in %: 100%
SETVI; Dosage 320 g/ha
  Post-emergence action against SETVI in %: 80%
VERPE [3]; dosage 320 g/ha
  Post-emergence action against VERPE in %: 80%
AMARE [4]; dosage 320 g/ha
  Post-emergence action against AMARE in %: 90%
Harmful plants
  herbicidal efficacy against harmful plants in the case of post-emergence treatment (in words): good herbicidal efficacy
LOLRI
  Pre-emergence action against LOLRI in %: 90%
VERPE [5]
  Pre-emergence action against VERPE in %: 80%
AMARE [6]
  Pre-emergence action at 1280 g/ha against AMARE in %: 100%
STEME
  Pre-emergence action at 1280 g/ha against STEME in %: 100%
ECHCG [7]; Dosage 320 g/ha
  Post-emergence action against ECHCG in %: 80%
POLCO
  Pre-emergence action against POLCO in %: 100%

## CCOC(=O)COc1nn(-c2cnccn2)c(-c2ccc(F)nc2)c1Br [Example I-52, ethyl {[4-bromo-5-(6-fluoropyridin-3-yl)-1-(pyrazin-2-yl)-1H-pyrazol-3-yl]oxy}acetate]
ALOMY; Dosage 80 g/ha
  Post-emergence action against ALOMY in %: 80%
ALOMY; Dosage 320 g/ha
  Post-emergence action against ALOMY in %: 90%
POAAN
  Pre-emergence action at 1280 g/ha against POAAN in %: 100%
DIGSA [1]
  Pre-emergence action against DIGSA in %: 100%
AMARE [2]
  Pre-emergence action against AMARE in %: 100%
MATIN
  Pre-emergence action at 1280 g/ha against MATIN in %: 90%
VERPE [3]; dosage 320 g/ha
  Post-emergence action against VERPE in %: 90%
AMARE [4]; dosage 80 g/ha
  Post-emergence action against AMARE in %: 90%
AMARE [4]; dosage 320 g/ha
  Post-emergence action against AMARE in %: 80%
LOLRI
  Pre-emergence action against LOLRI in %: 100%
VERPE [5]
  Pre-emergence action against VERPE in %: 90%
AMARE [6]
  Pre-emergence action at 1280 g/ha against AMARE in %: 90%
STEME
  Pre-emergence action at 1280 g/ha against STEME in %: 100%
ECHCG [7]; Dosage 320 g/ha
  Post-emergence action against ECHCG in %: 80%
POLCO
  Pre-emergence action against POLCO in %: 80%

## COC(=O)COc1nn(-c2cnccn2)c(-c2ccc(F)nc2)c1Br [Example I-11]
ALOMY; Dosage 320 g/ha
  Post-emergence action against ALOMY in %: 100%
POAAN
  Pre-emergence action at 1280 g/ha against POAAN in %: 100%
DIGSA [1]
  Pre-emergence action against DIGSA in %: 100%
AMARE [2]
  Pre-emergence action against AMARE in %: 90%
MATIN
  Pre-emergence action at 1280 g/ha against MATIN in %: 90%
SETVI; Dosage 320 g/ha
  Post-emergence action against SETVI in %: 90%
VERPE [3]; dosage 80 g/ha
  Post-emergence action against VERPE in %: 90%
VERPE [3]; dosage 320 g/ha
  Post-emergence action against VERPE in %: 90%
AMARE [4]; dosage 80 g/ha
  Post-emergence action against AMARE in %: 90%
AMARE [4]; dosage 320 g/ha
  Post-emergence action against AMARE in %: 90%
Harmful plants
  herbicidal efficacy against harmful plants in the case of post-emergence treatment (in words): good herbicidal efficacy
LOLRI
  Pre-emergence action against LOLRI in %: 100%
VERPE [5]
  Pre-emergence action against VERPE in %: 90%
AMARE [6]
  Pre-emergence action at 1280 g/ha against AMARE in %: 100%
STEME
  Pre-emergence action at 1280 g/ha against STEME in %: 100%
ECHCG [7]; Dosage 320 g/ha
  Post-emergence action against ECHCG in %: 80%
POLCO
  Pre-emergence action against POLCO in %: 90%

## C[C@@H](Oc1nn(-c2cnccn2)c(-c2cccc(F)c2)c1Br)C(=O)O [Example I-48]
ALOMY; Dosage 80 g/ha
  Post-emergence action against ALOMY in %: 90%
POAAN
  Pre-emergence action at 1280 g/ha against POAAN in %: 100%
DIGSA [1]
  Pre-emergence action against DIGSA in %: 100%
AMARE [2]
  Pre-emergence action against AMARE in %: 100%
MATIN
  Pre-emergence action at 1280 g/ha against MATIN in %: 100%
SETVI; Dosage 80 g/ha
  Post-emergence action against SETVI in %: 80%
LOLRI
  Pre-emergence action against LOLRI in %: 100%
VERPE [5]
  Pre-emergence action against VERPE in %: 100%
AMARE [6]
  Pre-emergence action at 1280 g/ha against AMARE in %: 100%
STEME
  Pre-emergence action at 1280 g/ha against STEME in %: 100%
ECHCG [8]
  Pre-emergence action against ECHCG in %: 100%
ECHCG [7]; Dosage 80 g/ha
  Post-emergence action against ECHCG in %: 90%
POLCO
  Pre-emergence action against POLCO in %: 100%

## COC(=O)C(C)Oc1nn(-c2cnccn2)c(-c2ccnc(F)c2)c1Br (racemic) [Example I-10]
ALOMY; Dosage 80 g/ha
  Post-emergence action against ALOMY in %: 90%
ALOMY; Dosage 320 g/ha
  Post-emergence action against ALOMY in %: 90%
POAAN
  Pre-emergence action at 1280 g/ha against POAAN in %: 100%
DIGSA [1]
  Pre-emergence action against DIGSA in %: 100%
AMARE [2]
  Pre-emergence action against AMARE in %: 90%
MATIN
  Pre-emergence action at 1280 g/ha against MATIN in %: 90%
SETVI; Dosage 320 g/ha
  Post-emergence action against SETVI in %: 80%
VERPE [3]; dosage 80 g/ha
  Post-emergence action against VERPE in %: 80%
VERPE [3]; dosage 320 g/ha
  Post-emergence action against VERPE in %: 90%
AMARE [4]; dosage 320 g/ha
  Post-emergence action against AMARE in %: 80%
Harmful plants
  herbicidal efficacy against harmful plants in the case of post-emergence treatment (in words): good herbicidal efficacy
DIGSA [9]
  Post-emergence action against DIGSA in %: 80%
LOLRI
  Pre-emergence action against LOLRI in %: 100%
AMARE [6]
  Pre-emergence action at 1280 g/ha against AMARE in %: 100%
STEME
  Pre-emergence action at 1280 g/ha against STEME in %: 100%

## COC(=O)[C@@H](C)Oc1nn(-c2cnccn2)c(-c2ccc(F)c(F)c2)c1C#N [Example I-46]
ALOMY; Dosage 80 g/ha
  Post-emergence action against ALOMY in %: 90%
ALOMY; Dosage 320 g/ha
  Post-emergence action against ALOMY in %: 90%
POAAN
  Pre-emergence action at 1280 g/ha against POAAN in %: 100%
DIGSA [1]
  Pre-emergence action against DIGSA in %: 100%
AMARE [2]
  Pre-emergence action against AMARE in %: 100%
MATIN
  Pre-emergence action at 1280 g/ha against MATIN in %: 100%
VERPE [3]; dosage 320 g/ha
  Post-emergence action against VERPE in %: 80%
AMARE [4]; dosage 80 g/ha
  Post-emergence action against AMARE in %: 80%
AMARE [4]; dosage 320 g/ha
  Post-emergence action against AMARE in %: 80%
LOLRI
  Pre-emergence action against LOLRI in %: 100%
VERPE [5]
  Pre-emergence action against VERPE in %: 100%
AMARE [6]
  Pre-emergence action at 1280 g/ha against AMARE in %: 100%
STEME
  Pre-emergence action at 1280 g/ha against STEME in %: 100%
ECHCG [8]
  Pre-emergence action against ECHCG in %: 100%
POLCO
  Pre-emergence action against POLCO in %: 100%

Reference: patent publication US20230167088A1, “1-PYRAZINYLPYRAZOLYL-3-OXYALKYL ACIDS AND THEIR DERIVATIVES, AND THEIR USE FOR CONTROL OF UNDESIRED PLANT GROWTH” (BAYER AKTIENGESELLSCHAFT, priority 2020, published 2023)
